Test results: patent US8883782B2, “Spiro-tetracyclic ring compounds as beta-secretase modulators and methods of use” (Amgen Inc., priority 2010, dated 2014)
Like-named read-outs stand apart in the source and are kept apart here.

Tests used:
[1] = biological target: Beta Secretase enzyme (BACE) (Homo sapiens, UniProt P56817); test: In vitro enzymatic BACE FRET (fluorescence resonance energy transfer) assay; assay type: biochemical
In short: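 Buffer 0.05 M acetate pH 4.2, 10% DMSO final, 100 uM genapol (sub-CMC); start with 50 nM FRET substrate; 1 h incubation; Tris stop; fluorescence read.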

[2] = tested on: Aβ40 in conditioned medium of cells stably expressing Amyloid Precursor Protein (APP); test: In vitro BACE cell-based assay (Aβ40 in conditioned medium, sandwich ELISA); details: Homo sapiens
In short: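 Quantification relied on pAb40/6E10 sandwich ELISA with Europium fluorescence counts, and IC50 was fitted versus concentration.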

[3] = average IC50, enzyme assay, read-out: BACE 1 FRET assay
[4] = HEK293, average IC50, read-out: HEK cell assay
[5] = HEK293, average IC50, HEK cells, read-out: HEK cell assay

Sequence of Beta Secretase enzyme (BACE) (P56817 46-501, species assumed): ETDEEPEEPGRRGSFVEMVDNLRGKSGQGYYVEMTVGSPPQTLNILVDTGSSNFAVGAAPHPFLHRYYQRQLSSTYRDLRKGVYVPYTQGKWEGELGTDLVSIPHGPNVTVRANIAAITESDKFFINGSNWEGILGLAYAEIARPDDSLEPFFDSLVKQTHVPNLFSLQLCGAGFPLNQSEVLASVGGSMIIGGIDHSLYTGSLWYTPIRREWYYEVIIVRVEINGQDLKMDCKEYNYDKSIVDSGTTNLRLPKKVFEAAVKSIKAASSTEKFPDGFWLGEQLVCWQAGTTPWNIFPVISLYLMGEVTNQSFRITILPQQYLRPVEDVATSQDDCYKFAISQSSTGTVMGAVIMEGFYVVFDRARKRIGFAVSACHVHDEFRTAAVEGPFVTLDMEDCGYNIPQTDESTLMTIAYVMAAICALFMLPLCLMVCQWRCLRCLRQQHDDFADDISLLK

NC1=N[C@@]2(CO1)c1cc(OCc3cccnc3)ccc1Oc1ncc(-c3ccnc(F)c3)cc12 [Example 974, (5S)-3-(2-fluoro-4-pyridinyl)-7-(3-pyridinylmethoxy)spiro[chromeno[2,3-b]pyridine-5,4′-[1,3]oxazol]-2′-amine]
IC50 [1, 3]: 0.11 µM | IC50 [2, 4]: 2.72 µM

CCc1cc2c(c(F)n1)Oc1ccc(-c3cncc(F)c3)cc1[C@@]21COC(N)=N1 [Example 850, (5S)-3-ethyl-1-fluoro-7-(5-fluoro-3-pyridinyl)spiro[chromeno[2,3-c]pyridine-5,4′-[1,3]oxazol]-2′-amine]
IC50 [1, 3]: 0.0045 µM | IC50 [2, 5]: 0.052 µM

NC1=N[C@]2(CO1)c1cc(-c3cccnc3F)ccc1Oc1cc(OC(F)(F)F)c(Br)cc12 [Example 988, (4R)-2′-bromo-7′-(2-fluoro-3-pyridinyl)-3′-(trifluoromethoxy)spiro[1,3-oxazole-4,9′-xanthen]-2-amine]
IC50 [1, 3]: 40 µM | IC50 [2, 4]: ≥ 10 µM

NC1=N[C@@]2(CO1)c1cc(-c3cc(Cl)ccc3F)ccc1Oc1ncc(C3=CCCOC3)cc12 [Example 172, (5S)-7-(5-chloro-2-fluorophenyl)-3-(5,6-dihydro-2H-pyran-3-yl)spiro[chromeno[2,3-b]pyridine-5,4′-[1,3]oxazol]-2′-amine]
IC50 [1, 3]: 0.0004 µM | IC50 [2, 4]: 0.0053 µM

CC1(C)C[C@@H](c2cc3c(cn2)Oc2ccc(-c4cncc(F)c4)cc2[C@@]32COC(N)=N2)CCO1 [Example 380, (5S)-3-((4S)-2,2-dimethyltetrahydro-2H-pyran-4-yl)-7-(5-fluoro-3-pyridinyl)spiro[chromeno[2,3-c]pyridine-5,4′-[1,3]oxazol]-2′-amine]
IC50 [1, 3]: 0.0302 µM | IC50 [2, 4]: 0.101 µM

N#Cc1ccncc1-c1ccc2c(c1)[C@@]1(COC(N)=N1)c1cc(C3=CCOCC3)ncc1O2 [Example 656, 3-((5S)-2′-amino-3-(3,6-dihydro-2H-pyran-4-yl)spiro[chromeno[2,3-c]pyridine-5,4′-[1,3]oxazol]-7-yl)-4-pyridinecarbonitrile]
IC50 [1, 3]: 0.0104 µM | IC50 [2, 5]: 0.066 µM

NC1=N[C@@]2(CS1)c1cc(-c3cccnc3F)ccc1Oc1ncc(-c3ccnc(F)c3)cc12 [Example 767, (5S)-7-(2-fluoro-3-pyridinyl)-3-(2-fluoro-4-pyridinyl)spiro[chromeno[2,3-b]pyridine-5,4′-[1,3]thiazol]-2′-amine]
IC50 [1, 3]: 0.001 µM | IC50 [2, 4]: 0.023 µM

N#Cc1cccc(-c2ccc3c(c2)[C@@]2(COC(N)=N2)c2cc(C4=CCOCC4)nc(F)c2O3)c1 [Example 743, 3-((5S)-2′-amino-3-(3,6-dihydro-2H-pyran-4-yl)-1-fluorospiro[chromeno[2,3-c]pyridine-5,4′-[1,3]oxazol]-7-yl)benzonitrile]
IC50 [1, 3]: 0.0004 µM | IC50 [2, 4]: 0.006 µM

NC1=N[C@@]2(CO1)c1cc(-c3cccnc3F)ccc1Oc1c2cc(N2CC[C@H](F)C2)nc1F [Example 917, (5S)-1-fluoro-7-(2-fluoro-3-pyridinyl)-3-((3S)-3-fluoro-1-pyrrolidinyl)spiro[chromeno[2,3-c]pyridine-5,4′-[1,3]oxazol]-2′-amine]
IC50 [1, 3]: 0.0003 µM | IC50 [2, 5]: 0.005 µM

CC1(CCc2cc(F)c3c(c2)[C@]2(COC(N)=N2)c2cc(-c4cccnc4F)ccc2O3)COC1 [Example 101, (S)-4′-fluoro-7′-(2-fluoropyridin-3-yl)-2′-(2-(3-methyloxetan-3-yl)ethyl)-5H-spiro[oxazole-4,9′-xanthen]-2-amine]
IC50 [1, 3]: 0.0005 µM | IC50 [2, 5]: 0.0045 µM

CC1(C#Cc2cncc(-c3ccc4c(c3)[C@@]3(COC(N)=N3)c3cc(Cl)ncc3O4)c2)COC1 [Example 810, (5S)-3-chloro-7-(5-((3-methyl-3-oxetanyl)ethynyl)-3-pyridinyl)spiro[chromeno[2,3-c]pyridine-5,4′-[1,3]oxazol]-2′-amine]
IC50 [1, 3]: 0.604 µM | IC50 [2, 4]: ≥ 10 µM

NC1=N[C@@]2(CO1)c1cc(-c3cccc(Cl)c3)ccc1Oc1cnc(-c3cccc(Cl)c3)cc12 [Example 527, (5S)-3,7-bis(3-chlorophenyl)spiro[chromeno[2,3-c]pyridine-5,4′-[1,3]oxazol]-2′-amine]
IC50 [1, 3]: 0.0015 µM | IC50 [2, 5]: 0.612 µM

NC1=N[C@]2(CS1)c1cc(-c3cccnc3)ccc1Oc1ncc(C3=CCOCC3)cc12 [Example 585, (5R)-3-(3,6-dihydro-2H-pyran-4-yl)-7-(3-pyridinyl)spiro[chromeno[2,3-b]pyridine-5,4′-[1,3]thiazol]-2′-amine]
IC50 [1, 3]: 0.0025 µM | IC50 [2, 5]: 0.0181 µM

COc1nc(Cl)cc2c1Oc1ccc(Br)cc1[C@@]21COC(N)=N1 [Example 710, (S)-7-bromo-3-chloro-1-methoxy-5′H-spiro[chromeno[2,3-c]pyridine-5,4′-oxazol]-2′-amine]
IC50 [1, 3]: 6.89 µM | IC50 [2, 4]: ≥ 10 µM

NC1=N[C@@]2(CO1)c1cc(-c3cccnc3F)ccc1Oc1ncc([C@@H]3CCCOC3)cc12 [Example 174, (5S)-7-(2-fluoro-3-pyridinyl)-3-((3S)-tetrahydro-2H-pyran-3-yl)spiro[chromeno[2,3-b]pyridine-5,4′-[1,3]oxazol]-2′-amine]
IC50 [1, 3]: 0.0121 µM | IC50 [2, 4]: 0.04 µM

NC1=N[C@@]2(CO1)c1cc(-c3cccnc3F)ccc1Oc1c(F)cc(N3CC4CC4C3)cc12 (stereo partly drawn) [Example 1054, (4S)-2′-(3-azabicyclo[3.1.0]hex-3-yl)-4′-fluoro-7′-(2-fluoro-3-pyridinyl)spiro[1,3-oxazole-4,9′-xanthen]-2-amine]
IC50 [1, 3]: 0.0006 µM | IC50 [2, 4]: 0.062 µM

Cn1cc(-c2cncc(-c3ccc4c(c3)[C@@]3(COC(N)=N3)c3cc(-c5cnn(C)c5)ncc3O4)c2)cn1 [Example 233, (5S)-3-(1-methyl-1H-pyrazol-4-yl)-7-(5-(1-methyl-1H-pyrazol-4-yl)-3-pyridinyl)spiro[chromeno[2,3-c]pyridine-5,4′-[1,3]oxazol]-2′-amine]
IC50 [1, 3]: 0.028 µM | IC50 [2, 4]: 0.092 µM

NC1=N[C@@]2(CO1)c1cc(-c3cnccc3F)ccc1Oc1cnc(C3=CCOCC3)cc12 [Example 391, (5S)-3-(3,6-dihydro-2H-pyran-4-yl)-7-(4-fluoro-3-pyridinyl)spiro[chromeno[2,3-c]pyridine-5,4′-[1,3]oxazol]-2′-amine]
IC50 ([1]; BACE 1 FRET assay (uM)): 0.0007 µM | IC50 ([2]; HEK293, read-out: HEK cell assay (uM), average IC50, HEK cells): 0.0058 µM

Cc1cnc(F)c(-c2ccc3c(c2)[C@@]2(COC(N)=N2)c2cc(N4CCC(F)(F)CC4)ncc2O3)c1 [Example 420, (5S)-3-(4,4-difluoro-1-piperidinyl)-7-(2-fluoro-5-methyl-3-pyridinyl)spiro[chromeno[2,3-c]pyridine-5,4′-[1,3]oxazol]-2′-amine]
IC50 [1, 3]: 0.0012 µM | IC50 [2, 5]: 0.0151 µM

NC1=N[C@]2(CS1)c1cc(-c3cncc(F)c3)ccc1Oc1cnc(C3=CCOCC3)cc12 [Example 618, (5R)-3-(3,6-dihydro-2H-pyran-4-yl)-7-(5-fluoro-3-pyridinyl)spiro[chromeno[2,3-c]pyridine-5,4′-[1,3]thiazol]-2′-amine]
IC50 [1, 3]: 0.369 µM | IC50 [2, 5]: 6.67 µM

NC1=N[C@@]2(CO1)c1cc(-c3cccnc3)ccc1Oc1cnc(NCC(F)(F)F)cc12 [Example 404, (5S)-7-(3-pyridinyl)-N~3~-(2,2,2-trifluoroethyl)spiro[chromeno[2,3-c]pyridine-5,4′-[1,3]oxazole]-2′,3-diamine]
IC50 [1, 3]: 0.0313 µM | IC50 [2, 5]: 0.163 µM

NC1=N[C@@]2(CO1)c1cc(OCc3cccc(F)c3)ccc1Oc1ncc(-c3cccnc3)cc12 [Example 982, (5S)-7-((3-fluorobenzyl)oxy)-3-(3-pyridinyl)spiro[chromeno[2,3-b]pyridine-5,4′-[1,3]oxazol]-2′-amine]
IC50 [1, 3]: 0.0668 µM | IC50 [2, 4]: 0.644 µM

CC1(C)C=C(c2cnc3c(c2)[C@]2(CSC(N)=N2)c2cc(-c4cncnc4)ccc2O3)CCO1 [Example 670, (5S)-3-(6,6-dimethyl-3,6-dihydro-2H-pyran-4-yl)-7-(5-pyrimidinyl)spiro[chromeno[2,3-b]pyridine-5,4′-[1,3]thiazol]-2′-amine]
IC50 [1, 3]: 0.0009 µM | IC50 [2, 5]: 0.009 µM

CC1(COc2cc(F)c3c(c2)[C@]2(COC(N)=N2)c2cc(-c4cccc(C#N)c4)ccc2O3)COC1 [Example 562, 3-((4S)-2-amino-5′-fluoro-7′-((3-methyl-3-oxetanyl)methoxy)spiro[1,3-oxazole-4,9′-xanthen]-2′-yl)benzonitrile]
IC50 [1, 3]: 0.002 µM | IC50 [2, 5]: 0.0058 µM

COc1nc(C2CCCOC2)cc2c1Oc1ccc(-c3cccnc3)cc1[C@@]21COC(N)=N1 (stereo partly drawn) [Example 845, (5S)-1-methoxy-7-(3-pyridinyl)-3-(tetrahydro-2H-pyran-3-yl)spiro[chromeno[2,3-c]pyridine-5,4′-[1,3]oxazol]-2′-amine]
IC50 [1, 3]: 0.0155 µM | IC50 [2, 4]: 0.07 µM

N#Cc1ncccc1-c1ccc2c(c1)[C@@]1(COC(N)=N1)c1cc(Cl)ncc1O2 [Example 387, 3-((5S)-2′-amino-3-chlorospiro[chromeno[2,3-c]pyridine-5,4′-[1,3]oxazol]-7-yl)-2-pyridinecarbonitrile]
IC50 [1, 3]: 0.672 µM | IC50 [2, 5]: 10 µM

NC1=N[C@@]2(CO1)c1cc(-c3cccnc3F)ccc1Oc1c(F)cc([C@@H]3CCCOC3)cc12 [Example 286, (4S)-4′-fluoro-7′-(2-fluoro-3-pyridinyl)-2′-((3S)-tetrahydro-2H-pyran-3-yl)spiro[1,3-oxazole-4,9′-xanthen]-2-amine]
IC50 [1, 3]: 0.0019 µM | IC50 [2, 4]: 0.0158 µM

CC1(C#Cc2cnc3c(c2)[C@]2(COC(N)=N2)c2cc(-c4cnccc4F)ccc2O3)COC1 [Example 104, (S)-7-(4-fluoropyridin-3-yl)-3-((3-methyloxetan-3-yl)ethynyl)-5′H-spiro[chromeno[2,3-b]pyridine-5,4′-oxazol]-2′-amine]
IC50 [1, 3]: 0.0011 µM | IC50 [2, 4]: 0.012 µM
